The source of these data is ChEMBL document CHEMBL4359918, “Discovery of tissue selective liver X receptor agonists for the treatment of atherosclerosis without causing hepatic lipogenesis” (Eur J Med Chem, 2019).

The target of data set [1] is T1, Oxysterols receptor LXR-alpha (Homo sapiens) (UniProt Q13133).
T1 sequence (whole entry): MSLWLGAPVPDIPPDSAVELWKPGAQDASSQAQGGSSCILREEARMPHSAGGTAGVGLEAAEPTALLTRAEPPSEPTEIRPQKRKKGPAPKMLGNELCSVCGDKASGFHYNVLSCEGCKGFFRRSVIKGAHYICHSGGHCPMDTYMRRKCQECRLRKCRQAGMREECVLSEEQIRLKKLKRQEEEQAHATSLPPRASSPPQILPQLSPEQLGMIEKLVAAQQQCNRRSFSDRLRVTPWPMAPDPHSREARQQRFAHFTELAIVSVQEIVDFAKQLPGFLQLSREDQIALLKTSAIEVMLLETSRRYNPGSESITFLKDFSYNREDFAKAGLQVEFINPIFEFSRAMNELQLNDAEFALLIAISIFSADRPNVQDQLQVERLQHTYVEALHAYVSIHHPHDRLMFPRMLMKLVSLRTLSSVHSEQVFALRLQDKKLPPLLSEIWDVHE
In words: Agonist activity at human LXRalpha transfected in HEK293T cells at 10 uM incubated for 20 hrs in presence of LXR antagonist SR9243 by luciferase reporter gene assay relative to control. In kind it is cell-based. (In a reporter assay the amount or activity of a reporter protein is the signal.)

For data set [2], the system named is PBMC. In words: Anti-atherosclerotic activity in C57BL/6 mouse PBMC assessed as inhibition of ox-LDL induced lipid accumulation at 10 uM incubated for 48 hrs by ORO staining based microscopic analysis. It counts as functional, cell-based.
In data set [3] the test system is RAW264.7. Nature of the data set: Anti-atherosclerotic activity in mouse RAW264.7 cells assessed as inhibition of ox-LDL induced lipid accumulation at 10 uM incubated for 48 hrs by ORO staining based microscopic analysis. In kind it is functional, cell-based.
Data set [4] in a line: Agonist activity at LXR in C57BL/6 mouse PBMC assessed as increase in sREBP-1c mRNA expression at 10 uM incubated for 48 hrs by qPCR analysis. A general note: Real-time PCR tracks product formation cycle by cycle.
Data set [5] has as its system HepG2. Nature of the data set: Effect on TG accumulation in human HepG2 cells at 10 uM incubated for 24 hrs. The following applies: hepg2, 24 h. It counts as ADME, cell-based.
The subject of data set [6] is HepG2. In words: Cytotoxicity against human HepG2 cells assessed as reduction in cell viability at 2 to 50 uM incubated for 24 hrs by MTT assay. The following applies: hepg2, 24 h. In kind it is cell-based.
For data set [7], the system named is Mus musculus. Nature of the data set: Anti-atherosclerotic activity in high fat diet-induced C57BL/6 mouse model of hypercholesterolemia assessed as reduction in hepatic triglyceride level at 10 to 40 mg/kg, po administered for 12 weeks. It counts as functional, organism-based.
The subject of data set [8] is Mus musculus. Nature of the data set: Anti-atherosclerotic activity in high fat diet-induced C57BL/6 mouse model of hypercholesterolemia assessed as reduction in liver weight at 10 to 40 mg/kg, po administered for 12 weeks by H and E staining-based assay. In kind it is functional, organism-based.
Data set [9] relates to Mus musculus. In words: Anti-atherosclerotic activity in high fat diet-induced C57BL/6 mouse model of hypercholesterolemia assessed as reduction in liver fat administered orally for 12 weeks by ORO staining based microscopic analysis. In kind it is functional, organism-based.
Data set [10] relates to Mus musculus. Nature of the data set: Anti-atherosclerotic activity in high fat diet-induced C57BL/6 mouse model of hypercholesterolemia assessed as increase in CYP7A1 mRNA expression in liver at 10 to 40 mg/kg, po administered for 12 weeks by RT-qPCR analysis. It counts as functional, organism-based.
In data set [11] the test system is Mus musculus. In words: Anti-atherosclerotic activity in high fat diet-induced C57BL/6 mouse model of hypercholesterolemia assessed as decrease in sREBP-1c mRNA expression in liver at 10 to 40 mg/kg, po administered for 12 weeks by RT-qPCR analysis. It counts as functional, organism-based.
The test system of data set [12] is Mus musculus. In words: Anti-atherosclerotic activity in high fat diet-induced C57BL/6 mouse model of hypercholesterolemia assessed as decrease in ACC mRNA expression in liver at 10 to 40 mg/kg, po administered for 12 weeks by RT-qPCR analysis. It counts as functional, organism-based.
Data set [13] has as its system Mus musculus. Nature of the data set: Anti-atherosclerotic activity in high fat diet-induced C57BL/6 mouse model of hypercholesterolemia assessed as increase in ABCA1 mRNA expression in small intestine at 10 to 40 mg/kg, po administered for 12 weeks by RT-qPCR analysis. It counts as functional, organism-based.
The subject of data set [14] is Mus musculus. In words: Anti-atherosclerotic activity in high fat diet-induced C57BL/6 mouse model of hypercholesterolemia assessed as increase in ABCG1 mRNA expression in small intestine at 10 to 40 mg/kg, po administered for 12 weeks by RT-qPCR analysis. It counts as functional, organism-based.
For data set [15], the system named is RAW264.7. In words: Effect on LXR mRNA expression in mouse RAW264.7 cells at 10 uM incubated for 48 hrs by qPCR analysis. The following applies: raw264.7, 48 h. It counts as cell-based.
In data set [16] the test system is Mus musculus. Nature of the data set: Anti-atherosclerotic activity in high fat diet-induced C57BL/6 mouse model of hypercholesterolemia assessed as increase in ABCG8 mRNA expression in ileum at 10 to 40 mg/kg, po administered for 12 weeks by RT-qPCR analysis. In kind it is functional, organism-based.

Active and inactive are the calls of the source. No cut-off for these calls is given here.

For the molecule `CC(C)C(=O)CC[C@@H](C)[C@H]1CC[C@H]2[C@@H]3C[C@H](O)[C@H]4C[C@H](O)CC[C@]4(C)[C@H]3CC[C@]12C`, in [1], the result was inactive. Also, the inhibition result in data set [2] and in [3] was “Active” in each case. Further, the Activity result in [4] was “Active”; in [5], “Non-Toxic”; in [6], “Non-Toxic”; in data set [9] it was “Dose-dependent effect”; in data set [15], “Non-Toxic”. For the same molecule, the result in data set [7], in [8], in data set [10], in [11], in [12] and in data set [13] was Active. Also, the result in [14] and in data set [16] was Active.
